# Values quoted from earlier work, collected in PMC12006171, “Marsupial cathelicidins: characterization, antimicrobial activity and evolution in this unique mammalian lineage” (Frontiers in Immunology, 2025).
# Where two headings read alike, the source gives them in different places.
# Assays:
# [1] = tested on: six bacteria (S. aureus, E. coli, P. aeruginosa; ATCC and clinical isolate); set-up: method as in 4 sources, ref Peel et al 2016 ||| ref Peel et al 2021 ||| ref Wang et al 2011 ||| ref Peel et al 2017; settings: cited from earlier work
# [2] = tested on: three fungi (Candida krusei, Candida parapsilosis, Candida albicans); set-up: method as in 4 sources, ref Peel et al 2016 ||| ref Peel et al 2021 ||| ref Wang et al 2011 ||| ref Peel et al 2017; settings: cited from earlier work
# [3] = mature peptide, Y/N summary from earlier study, ref Peel et al 2016
# [4] = mature peptide (MP), Y/N summary, ref Peel et al 2017
# [5] = mature peptide, Y/N summary from earlier study, ref Wang et al 2011
# [6] = mature peptide, Y/N summary from earlier study, ref Peel et al 2021
sequence,measurement,setting,value
KDILKNNNIIILPGSNEK [OranCath1],Antibacterial (MIC <64ug/mL),"[1]; mature peptide (MP), Y/N summary, ref Wang et al 2011",Y (Wang et al 2011) (Antibacterial (MIC <64ug/mL))
KREDFLDQIIRDFRNFIYQKYRRLRDEFRKLRDILSG [SahaCath4],Antibacterial (MIC <64ug/mL),[1]; [3],N (Peel et al 2016) (Antibacterial (MIC <64ug/mL))
same,Antifungal (MIC <64ug/mL),[2]; [3],N (Peel et al 2016) (Antifungal (MIC <64ug/mL))
RTFGNLIHQKYRKLLEAYRKLRDIFSG [ModoCath5],Antibacterial (MIC <64ug/mL),[1]; [4],N (Peel et al 2017) (Antibacterial (MIC <64ug/mL))
same,Antifungal (MIC <64ug/mL),[2]; [4],N (Peel et al 2017) (Antifungal (MIC <64ug/mL))
APVTPAPPGFTTSSKKKGKKKLPYTVIFGRTDFP [ModoCath3],Antibacterial (MIC <64ug/mL),[1]; [4],N (Peel et al 2017) (Antibacterial (MIC <64ug/mL))
same,Antifungal (MIC <64ug/mL),[2]; [4],N (Peel et al 2017) (Antifungal (MIC <64ug/mL))
KRGFGKKLRKRLKKFRNSIKKRLKNFNVVIPIPLPG [MaeuCath1],Antibacterial (MIC <64ug/mL),[1]; [5],Y (Wang et al 2011) (Antibacterial (MIC <64ug/mL))
same,Antifungal (MIC <64ug/mL),[2]; [5],Y (Wang et al 2011) (Antifungal (MIC <64ug/mL))
PPEPLRFKRIRCLNGRKCNYHNLLLTIVPHWRIPKGK [PhciCath3],Antibacterial (MIC <64ug/mL),[1]; [6],N (Peel et al 2021) (Antibacterial (MIC <64ug/mL))
same,Antifungal (MIC <64ug/mL),[2]; [6],N (Peel et al 2021) (Antifungal (MIC <64ug/mL))
IKIFIPKGFYKGIQLVNEIIKENNERQKQKP [ModoCath12],Antibacterial (MIC <64ug/mL),[1]; [4],N (Peel et al 2017) (Antibacterial (MIC <64ug/mL))
same,Antifungal (MIC <64ug/mL),[2]; [4],N (Peel et al 2017) (Antifungal (MIC <64ug/mL))
